Results reported in PMC6222422, “Synthesis and Biological Evaluation of Novel Indole-Derived Thioureas” (Molecules : A Journal of Synthetic Chemistry and Natural …, 2018).
Values after ≈ are worked out from the molar mass of the structure shown.

What was measured:
[1] = tested on: B. subtilis ATCC 6633; assay: MIC, twofold serial agar dilution; format: cell-based; details: Bacillus subtilis, ATCC6633, 18 h, 35 °C, read-out: minimal inhibitory concentrations (MIC)
[2] = tested on: Reo-1; assay: microbe, parasite or virus in culture; format: cell-based, reovirus type-1; details: Reovirus sp., BHK, read-out: Reo-1 EC50
[3] = tested on: M. luteus ATCC 9341; assay: MIC, twofold serial agar dilution; format: cell-based; details: Micrococcus luteus, ATCC9341, 18 h, 35 °C, read-out: minimal inhibitory concentrations (MIC)
[4] = tested on: VSV; assay: microbe, parasite or virus in culture; format: cell-based; details: Vesicular stomatitis virus, Vero 76, read-out: VSV EC50
[5] = tested on: M. luteus ATCC 9341; assay: disc diffusion method; format: cell-based, Micrococcus luteus; details: Micrococcus luteus, ATCC9341, applied 400 µg per disc, dash = lack of the growth inhibition area, read-out: diameter of growth inhibitory zone (GIZ)
[6] = tested on: S. aureus ATCC 6538; assay: disc diffusion method; format: cell-based, Staphylococcus aureus; details: Staphylococcus aureus, ATCC6538, applied 400 µg per disc, dash = lack of the growth inhibition area, read-out: diameter of growth inhibitory zone (GIZ)
[7] = tested on: RSV; assay: microbe, parasite or virus in culture; format: cell-based, human respiratory syncytial virus; details: human respiratory syncytial virus, Vero 76, read-out: RSV EC50
[8] = target: T1, S. aureus topoisomerase IV (Staphylococcus aureus, UniProt P0C1S7+P0C1U9); assay: biochemical
[9] = in vitro; details: human
[10] = target: S. aureus DNA gyrase (Staphylococcus aureus, UniProt P0A0K8+P20831); assay: S. aureus DNA gyrase supercoiling assay; format: biochemical
[11] = target: T1, S. aureus topoisomerase IV; details: 64 to 0.5 µg/mL, Figure 2

S. aureus DNA gyrase, sequence (P0A0K8 whole entry): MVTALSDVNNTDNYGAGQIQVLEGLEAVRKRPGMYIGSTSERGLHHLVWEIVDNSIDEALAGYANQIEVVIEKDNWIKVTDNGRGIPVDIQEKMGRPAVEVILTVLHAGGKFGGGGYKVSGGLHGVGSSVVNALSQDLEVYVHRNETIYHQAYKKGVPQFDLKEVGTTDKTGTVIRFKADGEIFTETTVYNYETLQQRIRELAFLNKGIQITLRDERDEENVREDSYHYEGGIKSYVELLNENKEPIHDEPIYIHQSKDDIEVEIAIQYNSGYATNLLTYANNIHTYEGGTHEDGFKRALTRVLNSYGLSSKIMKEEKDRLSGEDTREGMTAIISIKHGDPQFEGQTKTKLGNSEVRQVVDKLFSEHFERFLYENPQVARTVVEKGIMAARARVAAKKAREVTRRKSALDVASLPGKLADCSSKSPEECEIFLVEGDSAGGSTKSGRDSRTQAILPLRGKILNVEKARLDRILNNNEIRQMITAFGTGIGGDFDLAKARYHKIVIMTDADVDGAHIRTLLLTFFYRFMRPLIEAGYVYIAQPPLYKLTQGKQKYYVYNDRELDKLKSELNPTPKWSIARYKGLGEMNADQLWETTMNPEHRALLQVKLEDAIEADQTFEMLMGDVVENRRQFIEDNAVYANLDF
S. aureus DNA gyrase, sequence (P20831 whole entry): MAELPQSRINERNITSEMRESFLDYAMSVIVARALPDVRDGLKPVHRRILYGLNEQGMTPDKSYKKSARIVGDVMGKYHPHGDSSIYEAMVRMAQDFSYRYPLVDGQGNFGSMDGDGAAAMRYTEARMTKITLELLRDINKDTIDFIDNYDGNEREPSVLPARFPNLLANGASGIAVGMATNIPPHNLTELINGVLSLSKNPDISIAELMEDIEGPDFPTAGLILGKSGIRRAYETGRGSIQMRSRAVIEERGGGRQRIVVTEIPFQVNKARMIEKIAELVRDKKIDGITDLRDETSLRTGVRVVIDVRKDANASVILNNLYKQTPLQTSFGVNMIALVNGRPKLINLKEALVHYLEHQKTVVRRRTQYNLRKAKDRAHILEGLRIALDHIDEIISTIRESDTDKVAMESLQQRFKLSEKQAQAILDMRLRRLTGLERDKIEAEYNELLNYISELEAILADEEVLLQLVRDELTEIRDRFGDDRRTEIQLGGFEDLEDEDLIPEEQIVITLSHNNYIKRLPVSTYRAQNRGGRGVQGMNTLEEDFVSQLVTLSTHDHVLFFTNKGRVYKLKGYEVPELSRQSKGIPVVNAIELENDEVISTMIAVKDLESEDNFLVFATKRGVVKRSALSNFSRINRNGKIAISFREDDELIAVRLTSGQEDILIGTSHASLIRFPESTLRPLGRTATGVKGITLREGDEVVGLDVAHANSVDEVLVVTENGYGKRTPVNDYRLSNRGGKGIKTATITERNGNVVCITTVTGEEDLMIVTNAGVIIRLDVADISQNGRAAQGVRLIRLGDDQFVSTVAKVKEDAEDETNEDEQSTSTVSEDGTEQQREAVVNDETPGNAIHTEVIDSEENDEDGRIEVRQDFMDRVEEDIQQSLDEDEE
T1 sequence (P0C1U9 whole entry): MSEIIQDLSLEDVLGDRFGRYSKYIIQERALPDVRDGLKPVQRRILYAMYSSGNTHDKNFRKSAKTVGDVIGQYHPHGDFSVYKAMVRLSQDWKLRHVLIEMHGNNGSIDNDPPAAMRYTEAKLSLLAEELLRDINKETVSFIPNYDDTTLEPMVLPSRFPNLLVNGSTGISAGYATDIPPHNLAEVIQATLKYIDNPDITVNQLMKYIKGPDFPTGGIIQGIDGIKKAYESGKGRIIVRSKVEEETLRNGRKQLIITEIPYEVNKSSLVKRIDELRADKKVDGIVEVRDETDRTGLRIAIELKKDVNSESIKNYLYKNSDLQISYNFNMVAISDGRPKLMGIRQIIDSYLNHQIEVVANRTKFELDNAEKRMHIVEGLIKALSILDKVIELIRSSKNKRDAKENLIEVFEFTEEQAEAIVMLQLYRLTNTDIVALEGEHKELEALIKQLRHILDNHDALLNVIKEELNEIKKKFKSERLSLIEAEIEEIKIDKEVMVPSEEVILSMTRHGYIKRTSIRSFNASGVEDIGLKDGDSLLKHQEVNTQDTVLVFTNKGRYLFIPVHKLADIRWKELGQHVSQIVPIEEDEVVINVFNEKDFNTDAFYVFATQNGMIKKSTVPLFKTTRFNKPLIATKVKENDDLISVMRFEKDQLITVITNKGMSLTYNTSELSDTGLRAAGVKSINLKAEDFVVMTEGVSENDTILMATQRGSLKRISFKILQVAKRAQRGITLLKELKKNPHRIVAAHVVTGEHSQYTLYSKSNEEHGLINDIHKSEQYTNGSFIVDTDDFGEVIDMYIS
T1 sequence (P0C1S7 whole entry): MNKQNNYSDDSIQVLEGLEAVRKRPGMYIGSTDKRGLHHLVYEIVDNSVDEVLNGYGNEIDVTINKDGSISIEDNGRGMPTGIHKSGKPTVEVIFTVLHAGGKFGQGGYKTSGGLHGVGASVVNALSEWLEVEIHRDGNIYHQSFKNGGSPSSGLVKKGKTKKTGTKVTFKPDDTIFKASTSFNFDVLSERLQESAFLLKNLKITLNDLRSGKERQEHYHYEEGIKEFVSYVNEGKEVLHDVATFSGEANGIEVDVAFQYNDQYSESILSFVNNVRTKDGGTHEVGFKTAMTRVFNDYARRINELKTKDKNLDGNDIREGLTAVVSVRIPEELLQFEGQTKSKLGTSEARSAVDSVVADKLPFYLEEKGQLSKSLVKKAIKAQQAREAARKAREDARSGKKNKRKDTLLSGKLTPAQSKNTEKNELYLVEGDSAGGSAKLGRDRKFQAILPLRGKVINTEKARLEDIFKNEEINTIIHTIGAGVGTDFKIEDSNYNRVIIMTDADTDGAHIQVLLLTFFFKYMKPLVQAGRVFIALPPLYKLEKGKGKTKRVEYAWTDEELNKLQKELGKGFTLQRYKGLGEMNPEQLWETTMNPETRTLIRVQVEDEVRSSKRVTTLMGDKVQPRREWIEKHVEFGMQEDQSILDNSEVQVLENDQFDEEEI

Row | SMILES | MIC [1] | EC50 [2] | MIC [3] | EC50 [4] | zone of inhibition at 400 µg/disc [5] | zone of inhibition at 400 µg/disc [6] | EC50 [7] | IC50 [8] | melting point | CC50 [9] | IC50 ([10]; supercoiling of relaxed pBR322 DNA, 30 min, 37 °C, read-out: IC50 ± SEM, S. aureus DNA Gyrase (converted)) | effect against DNA topoisomerase IV (in words) [11] | effect against DNA gyrase (in words) ([10]; data not shown)
1 | S=C(NCCc1c[nH]c2ccccc12)Nc1ccc(Cl)c(Cl)c1 [Compound 6, 1-(2-(1H-indol-3-yl)ethyl)-3-(3,4-dichlorophenyl)thiourea] | 12.5 µg/mL (≈ 34.3 µM) | > 10 µM | 12.5 µg/mL (≈ 34.3 µM) | > 13 µM | 15 mm | 16 mm | > 13 µM | 79.3 µM | 168 to 169 °C | 45 µM | 199 µM | – | –
2 | S=C(NCCc1c[nH]c2ccccc12)Nc1cccc(Cl)c1 [Compound 14, 1-(2-(1H-Indol-3-yl)ethyl)-3-(3-chlorophenyl)thiourea] | 50 µg/mL (≈ 152 µM) | > 6 µM | 200 µg/mL (≈ 606 µM) | > 32 µM | 12 mm | 13 mm | > 32 µM | – | 169 to 171 °C | 42 µM | – | not significantly effective | not significantly effective
